# Experimental data taken from patent US20240218022A1, “ANTI-VISTA MACROCYCLIC PEPTIDES AND COMPOSITIONS” (BRISTOL-MYERS SQUIBB COMPANY, priority 2022, published 2024).
# Positions of bridges follow the written chain, without caps; N, C: chain ends. Non-standard residues stand in square brackets, D forms with d. Residues, ends and D or L forms follow the SMILES beside them. 2Nal = N[C@@H](Cc1ccc2ccccc2c1)C(=O)O; Cit = NC(=O)NCCC[C@H](N)C(=O)O; Ahp(2) = CCCCC[C@H](N)C(=O)O; NMeNle = CCCC[C@H](NC)C(=O)O; NHexGly = CCCCCCNCC(=O)O; Nle = CCCC[C@H](N)C(=O)O; Orn = NCCC[C@H](N)C(=O)O; NBuGly = CCCCNCC(=O)O
# Target: T1, mouse VISTA (mVISTA) (Mus musculus, UniProt Q9D659)
# T1 construct: expressed in transfected cells; host or cells: Human embryonic kidney 293T cells
# T1 sequence (Q9D659 33-308): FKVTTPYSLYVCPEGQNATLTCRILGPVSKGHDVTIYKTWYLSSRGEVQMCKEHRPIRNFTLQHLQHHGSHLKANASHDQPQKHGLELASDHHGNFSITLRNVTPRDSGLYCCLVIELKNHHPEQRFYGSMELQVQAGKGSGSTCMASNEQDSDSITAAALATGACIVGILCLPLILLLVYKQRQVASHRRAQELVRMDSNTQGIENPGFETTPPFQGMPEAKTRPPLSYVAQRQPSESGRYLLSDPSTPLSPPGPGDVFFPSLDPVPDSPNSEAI
# Test: Cell-Based Binding High-Content Assay For mVISTA (HC CBA mVISTA)
# Details: cell-based binding high-content assay, mVISTA; the 16th table; read-out: HC CBA mVISTA IC50
# Protocol: Cell-Based Binding High-Content Assay For mVISTA
# Human embryonic kidney 293T cells (293T) expressing mouse VISTA (mVISTA) were used for the assessment of compounds competing with the binding of a biotinylated peptide. Cryopreserved cells were thawed in a 37° C. water bath and incubated overnight at a 37° C./5% CO2 incubator in assay culture media DMEM (Life Technologies Inc. Cat. No. 11995-126) supplemented with 10% (v/v) FBS (Sigma, Cat. No. F4135), 1× Penicillin/Streptomycin (Life Technologies Inc. Cat. No. 15140-122). Cells were harvested, washed and resuspended in DMEM media […]. To test compounds under “no-wash” condition, cells were seeded into PDL-coated 384 well plates (Corning, Cat. No. 356663) at 4,000 cells/20 μL. After incubating the cell plates for two hours at a 37° C./5% CO2 incubator, 125 nL of test compound was added using an ECHO. Alternatively, to test compounds under “wash” condition, test compounds were added first, followed by addition of 20 μL cells at a density of 4000 cells/well. After incubation for an hour, the media was removed, followed by addition of 20 μL of fresh media ( ), and plates were then incubated for another hour. To plates either under “no wash” or “wash” condition, the biotinylated peptide was added to a final concentration of 2 nM, and plates were incubated at room temperature for 30 minutes. Fifteen (15) μL of Alexa 647 conjugated Streptavidin (Life Tech, Cat. No. S21374), suspended at 2 μg/ml in media, was added to the assay plate and incubate for 30 minutes. Cells were fixed by adding 15 μL of formaldehyde at a final concentration of 8% (w/v) (Sigma Cat. No. 252549), 20 μg/mL Hoechst (Thermo Scientific Cat. No. 62249) in PBS for 10 minutes at room temperature. The plates were washed 3 times in dPBS, sealed, and read on a CellInsight NXT High Content Screening Platform IC903000 (Thermo Scientific). The 50% effective concentration (IC50) was calculated using the four-parameter logistic formula y=A+((B−A)/(1+((C/x)^D))), where A and B denote minimal and maximal % inhibition, respectively, C is the EC50, D is hill slope and x represent compound concentration.
row,Compound,IC50 [nM]
1,CCCCCCN1CC(=O)N[C@@H](Cc2ccc(O)cc2)C(=O)N[C@@H](CCCC)C(=O)N[C@@H](CC(=O)O)C(=O)N[C@@H](CCCNC(N)=O)C(=O)N(C)[C@@H](CCCC)C(=O)N[C@@H](CCCCC)C(=O)N2CCC[C@H]2C(=O)N[C@@H](C(C)C)C(=O)N[C@@H](CC(=O)O)C(=O)N[C@H](C(=O)N[C@@H](CC(=O)O)C(N)=O)CSCC(=O)N[C@@H](Cc2ccc3ccccc3c2)C(=O)N[C@@H](Cc2ccc(O)cc2)C(=O)N[C@@H](CC(=O)O)C1=O [Ex 1265] ({CH2CO}-[2Nal]YD[NHexGly]Y[Nle]D[Cit][NMeNle][Ahp(2)]PVDCD-NH2; thioether N-14),9
2,CCCCCCN1CC(=O)N[C@@H](Cc2ccc(O)cc2)C(=O)N[C@@H](CCCC)C(=O)N[C@@H](CC(=O)O)C(=O)N[C@@H](CCCNC(=N)N)C(=O)N(C)[C@@H](CCCC)C(=O)N[C@@H](CCCCC)C(=O)N2CCC[C@H]2C(=O)N[C@@H](C(C)C)C(=O)N[C@@H](CC(=O)O)C(=O)N[C@H](C(=O)N[C@@H](CC(=O)O)C(N)=O)CSCC(=O)N[C@@H](Cc2ccc3ccccc3c2)C(=O)N[C@@H](Cc2ccc(O)cc2)C(=O)N[C@@H](CC(=O)O)C1=O [Ex 1266] ({CH2CO}-[2Nal]YD[NHexGly]Y[Nle]DR[NMeNle][Ahp(2)]PVDCD-NH2; thioether N-14),6.5
3,CCCCCCN1CC(=O)N[C@@H](Cc2ccc(O)cc2)C(=O)N[C@@H](CCCC)C(=O)N[C@@H](CC(=O)O)C(=O)N[C@@H](CCCNC(=N)N)C(=O)N[C@@H](CC(C)C)C(=O)N[C@@H](CCCCC)C(=O)N2CCC[C@H]2C(=O)N[C@@H](C(C)C)C(=O)N[C@@H](CC(=O)O)C(=O)N[C@H](C(=O)N[C@@H](CC(=O)O)C(N)=O)CSCC(=O)N[C@@H](Cc2ccc3ccccc3c2)C(=O)N[C@@H](Cc2ccc(O)cc2)C(=O)N[C@@H](CC(=O)O)C1=O [Ex 1267] ({CH2CO}-[2Nal]YD[NHexGly]Y[Nle]DRL[Ahp(2)]PVDCD-NH2; thioether N-14),15.3
4,CCCCCCN1CC(=O)N[C@@H](Cc2ccc(O)cc2)C(=O)N[C@@H](CCCC)C(=O)N[C@@H](CC(=O)O)C(=O)N[C@@H](CCCN)C(=O)N[C@@H](CC(C)C)C(=O)N[C@@H](CCCCC)C(=O)N2CCC[C@H]2C(=O)N[C@@H](C(C)C)C(=O)N[C@@H](CC(=O)O)C(=O)N[C@H](C(=O)N[C@@H](CC(=O)O)C(N)=O)CSCC(=O)N[C@@H](Cc2ccc3ccccc3c2)C(=O)N[C@@H](Cc2ccc(O)cc2)C(=O)N[C@@H](CC(=O)O)C1=O [Ex 1268] ({CH2CO}-[2Nal]YD[NHexGly]Y[Nle]D[Orn]L[Ahp(2)]PVDCD-NH2; thioether N-14),9.7
5,CCCCC[C@@H]1NC(=O)[C@H](CC(C)C)NC(=O)[C@H](CCCNC(=N)N)NC(=O)CNC(=O)[C@H](C(C)C)NC(=O)[C@H](Cc2ccc(O)cc2)NC(=O)CN(CCCC)C(=O)[C@H](CC(=O)O)NC(=O)[C@H](Cc2ccc(O)cc2)NC(=O)[C@H](Cc2ccc3ccccc3c2)NC(=O)CSC[C@@H](C(=O)NCC(=O)O)NC(=O)[C@H](CC(=O)O)NC(=O)[C@H](C(C)C)NC(=O)[C@@H]2CCCN2C1=O [Ex 1269] ({CH2CO}-[2Nal]YD[NBuGly]YVGRL[Ahp(2)]PVDCG-OH; thioether N-14),15.7
6,CCCCC[C@@H]1NC(=O)[C@H](CC(C)C)NC(=O)[C@H](CCCNC(=N)N)NC(=O)[C@H](CC(N)=O)NC(=O)[C@H](CCCC)NC(=O)[C@H](Cc2ccc(O)cc2)NC(=O)CN(CCCC)C(=O)[C@H](CC(=O)O)NC(=O)[C@H](Cc2ccc(O)cc2)NC(=O)[C@H](Cc2ccc3ccccc3c2)NC(=O)CSC[C@@H](C(=O)NCC(=O)O)NC(=O)[C@H](CC(=O)O)NC(=O)[C@H](C(C)C)NC(=O)[C@@H]2CCCN2C1=O [Ex 1270] ({CH2CO}-[2Nal]YD[NBuGly]Y[Nle]NRL[Ahp(2)]PVDCG-OH; thioether N-14),2.4
7,CCCCC[C@@H]1NC(=O)[C@H](CC(C)C)NC(=O)[C@H](CCCNC(=N)N)NC(=O)[C@H](CC(N)=O)NC(=O)[C@H](CCCC)NC(=O)[C@H](Cc2ccc(O)cc2)NC(=O)CN(CCCC)C(=O)[C@H](CC(=O)O)NC(=O)[C@H](Cc2ccc(O)cc2)NC(=O)[C@H](Cc2ccc3ccccc3c2)NC(=O)CSC[C@@H](C(=O)NCC(N)=O)NC(=O)[C@H](CC(=O)O)NC(=O)[C@H](C(C)C)NC(=O)[C@@H]2CCCN2C1=O [Ex 1271] ({CH2CO}-[2Nal]YD[NBuGly]Y[Nle]NRL[Ahp(2)]PVDCG-NH2; thioether N-14),8
8,CCCCCCN1CC(=O)N[C@@H](Cc2ccc(O)cc2)C(=O)N[C@@H](CCCC)C(=O)N[C@@H](CC(N)=O)C(=O)N[C@@H](CCCNC(=N)N)C(=O)N[C@@H](CC(C)C)C(=O)N[C@@H](CCCCC)C(=O)N2CCC[C@H]2C(=O)N[C@@H](C(C)C)C(=O)N[C@@H](CO)C(=O)N[C@H](C(=O)NCC(=O)O)CSCC(=O)N[C@@H](Cc2ccc3ccccc3c2)C(=O)N[C@@H](Cc2ccc(O)cc2)C(=O)N[C@@H](CC(=O)O)C1=O [Ex 1272] ({CH2CO}-[2Nal]YD[NHexGly]Y[Nle]NRL[Ahp(2)]PVSCG-OH; thioether N-14),2.8
9,CCCCCCN1CC(=O)N[C@@H](Cc2ccc(O)cc2)C(=O)N[C@@H](CCCCC)C(=O)NCC(=O)N[C@@H](CCCNC(=N)N)C(=O)N[C@@H](CC(C)C)C(=O)N[C@@H](CCCCC)C(=O)N2CCC[C@H]2C(=O)N[C@@H](C(C)C)C(=O)N[C@@H](CO)C(=O)N[C@H](C(=O)NCC(N)=O)CSCC(=O)N[C@@H](Cc2ccc3ccccc3c2)C(=O)N[C@@H](Cc2ccc(O)cc2)C(=O)N[C@@H](CC(=O)O)C1=O [Ex 1273] ({CH2CO}-[2Nal]YD[NHexGly]Y[Ahp(2)]GRL[Ahp(2)]PVSCG-NH2; thioether N-14),14.3
10,CCCCCCN1CC(=O)N[C@@H](Cc2ccc(O)cc2)C(=O)N[C@@H](CC(C)C)C(=O)NCC(=O)N[C@@H](CCCNC(=N)N)C(=O)N[C@@H](CC(C)C)C(=O)N[C@@H](CCCCC)C(=O)N2CCC[C@H]2C(=O)N[C@@H](C(C)C)C(=O)N[C@@H](CO)C(=O)N[C@H](C(=O)NCC(=O)O)CSCC(=O)N[C@@H](Cc2ccc3ccccc3c2)C(=O)N[C@@H](Cc2ccc(O)cc2)C(=O)N[C@@H](CC(=O)O)C1=O [Ex 1274] ({CH2CO}-[2Nal]YD[NHexGly]YLGRL[Ahp(2)]PVSCG-OH; thioether N-14),32
11,CCCCCCN1CC(=O)N[C@@H](Cc2ccc(O)cc2)C(=O)N[C@@H](CC(C)C)C(=O)NCC(=O)N[C@@H](CCCNC(=N)N)C(=O)N[C@@H](CC(C)C)C(=O)N[C@@H](CCCCC)C(=O)N2CCC[C@H]2C(=O)N[C@@H](C(C)C)C(=O)N[C@@H](CO)C(=O)N[C@H](C(=O)NCC(N)=O)CSCC(=O)N[C@@H](Cc2ccc3ccccc3c2)C(=O)N[C@@H](Cc2ccc(O)cc2)C(=O)N[C@@H](CC(=O)O)C1=O [Ex 1275] ({CH2CO}-[2Nal]YD[NHexGly]YLGRL[Ahp(2)]PVSCG-NH2; thioether N-14),35.9
12,CCCCCCN1CC(=O)N[C@@H](Cc2ccc(O)cc2)C(=O)N[C@@H](CCCC)C(=O)NCC(=O)N[C@@H](CCCNC(=N)N)C(=O)N[C@@H](CC(C)C)C(=O)N[C@@H](CCCCC)C(=O)N2CCC[C@H]2C(=O)N[C@@H](C(C)C)C(=O)N[C@@H](CO)C(=O)N[C@H](C(=O)NCC(N)=O)CSCC(=O)N[C@@H](Cc2ccc3ccccc3c2)C(=O)N[C@@H](Cc2ccc(O)cc2)C(=O)N[C@@H](CC(=O)O)C1=O [Ex 1276] ({CH2CO}-[2Nal]YD[NHexGly]Y[Nle]GRL[Ahp(2)]PVSCG-NH2; thioether N-14),40.6
13,CCCCCCN1CC(=O)N[C@@H](Cc2ccc(O)cc2)C(=O)N[C@@H](C(C)C)C(=O)NCC(=O)N[C@@H](CCCNC(=N)N)C(=O)N[C@@H](CC(C)C)C(=O)N[C@@H](CCCCC)C(=O)N2CCC[C@H]2C(=O)N[C@@H](C(C)C)C(=O)N[C@@H](CO)C(=O)N[C@H](C(=O)NCC(=O)O)CSCC(=O)N[C@@H](Cc2ccc3ccccc3c2)C(=O)N[C@@H](Cc2ccc(O)cc2)C(=O)N[C@@H](CC(=O)O)C1=O [Ex 1277] ({CH2CO}-[2Nal]YD[NHexGly]YVGRL[Ahp(2)]PVSCG-OH; thioether N-14),23.2
